Active and inactive are the calls of the source. The calls are words filed in the database; no cut-off is given here.

The values below come from ChEMBL document CHEMBL5233292, “Biscroyunoid A, an Anti-Hepatic Fibrotic 19-nor-Clerodane Diterpenoid Dimer with a C-16-C-12' Linkage from Croton yunnanensis” (J Nat Prod, 2023).

Series [1] has as its system LX2. The series is described as follows: Inhibition of TGF-beta1/Smad2/3 signaling in TGF-beta1-stimulated human LX-2 cells assessed as reduction in Smad2/3 translocation from cytoplasm to nucleus at 40 uM by DAPI staining based fluorescence analysis. It counts as cell-based.
The test system of series [2] is LX2. As to the kind of experiment: Inhibition of TGF-beta1/Smad2/3 signaling in TGF-beta1-stimulated human LX-2 cells assessed as reduction in Smad3 phosphorylation at 20 to 40 uM by western blot analysis. It is filed as cell-based. Conditions: dose 20-40 µM. In general terms: In western blotting, separated proteins are transferred to a membrane and probed.
In series [3] the test system is LX-2. The series is described as follows: Anti-hepatic fibrosis activity in human LX2 cells assessed as inhibition of TGFbeta1-induced fibronectin expression measured after 48 hrs by immunofluorescence analysis. It counts as functional, cell-based. Conditions: dose 20-40 µM.
The test system of series [4] is LX-2. The series is described as follows: Anti-hepatic fibrosis activity in human LX2 cells assessed as inhibition of TGFbeta1-induced collagen I expression at 20 to 40 uM measured after 48 hrs by western blot analysis. It counts as functional, cell-based. The note with it: dose 20-40 µM.
Series [5] has as its system LX2. As to the kind of experiment: Inhibition of TGF-beta1/Smad2/3 signaling in TGF-beta1-stimulated human LX-2 cells assessed as reduction in Smad2 phosphorylation at 20 to 40 uM by western blot analysis. It is filed as cell-based. Conditions: dose 20-40 µM.
The subject of series [6] is LX-2. As to the kind of experiment: Anti-hepatic fibrosis activity in human LX2 cells assessed as inhibition of TGFbeta1-induced alpha-SMA expression at 20 to 40 uM measured after 48 hrs by western blot analysis. It counts as functional, cell-based. Conditions: dose 20-40 µM.
A short description of series [7]: Cytotoxicity against human LX2 cells at 20 to 40 uM. The note with it: lx-2, 40 µM, dose 20-40 µM. It is filed as toxicity, cell-based.

For the compound `COC(=O)C1=CC[C@H]2[C@@]3(CC[C@@H](C)[C@]24C[C@@H](c2occc2[C@H]2C[C@@]56[C@H](O2)O[C@]2(CC[C@H]5C)C(C(=O)OC)=CCC[C@H]62)c2ccoc2[C@@H]4O3)C1`, the inhibition result with LX2 [1], with LX2 [2] and in the series on LX2 [5] was “Active” throughout. Moreover, the Activity entry in the series with LX-2 [3] is “Dose-Dependent Effect”; in series [7] it was “Non-Toxic”. The outcome with LX-2 [4] and in the series on LX-2 [6] was Active.
